Measured values taken from patent US8962891B2, “Synthetic analogs of sphingolipids” (Hadasit Medical Research Services & Development Limited, priority 2007, dated 2015).
pIC50: −log10 of the molar value. Values belong to the molecule of their own block, whether it stands above or below them.

What was measured:
[1] = system: Pancreas tumor cells; assay: Pancreas tumor cell viability after combined treatment (MTT test); type: cell-based; details: 24 h; for cell viability (MTT), combination of AD2730 and ADYZ197: 2 μM AD2730 combined with 10 μM ADYZ197
Method: FIG. 3A-3B: The viability of pancreatic cells using different drug combination for 24, h (MTT test)
The inventors next examined the effect of combining the compound of the invention with known chemotherapeutic drugs. Pancreas tumor cells were incubated with 1 μM taxol and 2 μM AD2750, (separately and in combination). The results are shown in the left part of the graph, in FIG. 3A, as percent of viable cells (checked by MTT). A combination of 20 μM fluorouracil and 8 μM AD2750 is shown in the right part of the graph, in FIG. 3A.
The inventors next examined the potential anti-cancerous effect of other compounds of Formula II. Therefore, pancreas tumor cells were incubated with 2 μM AD2730 and 10 μM ADYZ197, separately and in combination. The results are presented in the left part of the graph, in FIG. 3B, as percent of viable cells (checked by MTT).

[2] = system: CRL-5803; assay: IC50 in cancer cell lines (Table 1), CRL-5803; type: cell-based; details: CRL-5803 (NSCLC, Lung carcinoma), incubation 24 hours, FCS yes, 0.1 × 10^6/ml plated cells
[3] = system: MEL624; assay: IC50 in cancer cell lines (Table 1), MEL624; type: cell-based; details: MEL624 (Melanoma), incubation 24 hours, FCS yes, 0.1 × 10^6/ml plated cells
[4] = system: MDA-MB-435 cells; assay: MDA-MB-435 survival experiment in nude mice; type: in vivo; details: CD1-nude mice injected iv with 3×10^6 MDA-MB-435 cells; 20 mg/kg in the drinking water beginning day 1; to day 100
Method: CD1-nude mice were injected iv with 3×10^6 MDA-MB-435 cells, which are usually considered as metastatic human breast cancer, but recently are also considered as model cells for melanoma. The mice were treated with AD2750, 20 mg/kg in the drinking water beginning day 1. On day 100, the remaining mice were sacrificed, and the pathology was determined.

[5] = system: pancreas tumor cells (CRL-1687); assay: Pancreas tumor (CRL-1687) growth in CD1-nude mice; type: in vivo; details: 5×10^6 CRL-1687 cells id, 30 mg/kg ip in 10% CE beginning day 1, up to 35 days
Method: In order to examine the applicability of the compounds of the invention as an anti-cancerous drug, the inventors next examined the effect of i.p. administration of AD2750, on pancreas tumor. Therefore, CD1-nude mice were injected id with 5×10^6 pancreas tumor cells (CRL-1687). The mice were treated ip, with AD2750, beginning day 1, 30, mg/kg in 0.2 ml 10% CE, for up to 35 days. Tumor size was measured and calculated every 5-7 days beginning day 8.

[6] = system: CCL-224; assay: IC50 in cancer cell lines (Table 1), CCL-224; type: cell-based; details: CCL-224 (Colon), incubation 24 hours, FCS no, 0.2*10^6/ml plated cells
[7] = system: CRL-5891; assay: IC50 in cancer cell lines (Table 1), CRL-5891; type: cell-based; details: CRL-5891 (NSCLC, Lung carcinoma), incubation 24 hours, FCS no, 0.1 × 10^6/ml plated cells
[8] = system: BxPC-3 tumor; assay: BxPC-3 human pancreatic tumor xenograft efficacy study; type: in vivo; details: BxPC-3 s.c. in athymic NCr-nu/nu mice
Text: BxPC-3 Human Pancreatic Tumor Model
Thirty-to-forty mg tumor fragments of BxPC-3 tumor from a continuous in vivo passage were implanted subcutaneously (sc) into athymic NCr-nu/nu mice using 12-gauge trocar needles.
Animals were purchased from NCI-approved animal facilities (4-5 weeks old) and acclimated in the laboratories one week prior to experimentation. The animals were housed in microisolator cages in a 12-hour light/dark cycle. Animals received filter-sterilized water and sterile rodent food ad libitum. Cages were changed a minimum of twice weekly. The animals were weighed twice weekly and observed daily (for about sixty days of experiment) for clinical signs.
Tumor Measurements and Body Weights: Tumors measurements and animal body weights are recorded twice weekly. Tumor volume was determined by caliper measurements (mm) and using the formula for an ellipsoid sphere: Length×Width^2/2=Volume (mm^3)
This commonly used formula is also used to calculate tumor weight, assuming unit density (1 mm^3=1 mg).
Parameters Evaluated: For sc tumors trials, a T-C value based on 1, 2, 3 or 4 tumor volume doubling time (days), as appropriate for the particular trial, was made. This evaluation is based on tumor size of the control animals at the end of the treatment period. A T/C (%) or T/C (%) value was determined. […]

[9] = system: CRL-1976; assay: IC50 in cancer cell lines (Table 1), CRL-1976; type: cell-based; details: CRL-1976 (Sarcoma), incubation 24 hours, FCS yes, 0.2*10^6/ml plated cells
[10] = system: PC-3; assay: IC50 in cancer cell lines (Table 1), PC-3; type: cell-based; details: Homo sapiens, PC-3 (Prostate)
[11] = system: Du-145; assay: IC50 in cancer cell lines (Table 1), Du-145; type: cell-based; details: Homo sapiens, Du-145 (Prostate)
[12] = system: LNCaP; assay: IC50 in cancer cell lines (Table 1), LNCaP; type: cell-based; details: Homo sapiens, LNCaP (Prostate)
[13] = system: CRL-1687; assay: IC50 in cancer cell lines (Table 1), CRL-1687; type: cell-based; details: CRL-1687 (Pancreas), incubation 24 hours, FCS yes, 0.2*10^6/ml plated cells
[14] = system: HL-60; assay: IC50 in cancer cell lines (Table 1), HL-60; type: cell-based; details: Homo sapiens; HL-60 (Promyelocytic leukemia), incubation 24 hours, FCS no, 0.1 × 10^6/ml plated cells
[15] = incubation 24 hours, FCS yes, 0.1 × 10^6/ml plated cells
[16] = incubation 72 hours, FCS yes, 0.05 × 10^6/ml plated cells
[17] = incubation 24 hours, FCS no, 0.1 × 10^6/ml plated cells
[18] = incubation 48 hours, FCS yes, 0.1 × 10^6/ml plated cells

SMILES: CCCCNC(CO)C(O)c1ccccc1 (centres unmarked) [AD2730, 2-(butylamino)-1-phenylpropane-1,3-diol]
cell viability (MTT), combination of AD2730 and ADYZ197 [1]: significant synergistic effect on reduction of cell viability

SMILES: CCCCCCCCCCCCCCNC(CO)CO [AD2750, 2-(tetradecylamino)propane-1,3-diol]
pIC50 [2]: 4.96 | pIC50 [3]: 5.05 | survival of treated animals [4]: increased survival | tumor incidence [4]: significantly reduced tumor incidence | reduction in tumor volume [5]: about 5 folds | pIC50 [6]: 4.89 | pIC50 [7]: 5.10 | tumor volume, monotherapy ([8]; 20 or 30 mg/kg i.p. daily for 28 days, vs vehicle): clearly reduced tumor volume in a dose dependent manner | tumor volume, combination with Camptosar ([8]; AD2750 20 or 30 mg/kg with Camptosar 60 or 30 mg/kg i.p. for 28 days): significant reduction in tumor volume | tumor cell viability (MTT), combination with Taxol ([1]; 2 μM AD2750 combined with 1 μM taxol): markedly reduced tumor cell viability | tumor cell viability (MTT), combination with fluorouracil ([1]; 8 μM AD2750 combined with 20 μM fluorouracil): markedly reduced tumor cell viability | pIC50 [9]: 5.30 | pIC50 [10, 15]: 4.91 | pIC50 [10, 16]: 5.17 | pIC50 [11, 17]: 5.48 | pIC50 [11, 16]: 5.12 | pIC50 ([12]; LNCaP, 24 h, incubation 24 hours, FCS no, 0.1 × 10^6/ml plated cells): 5.31 | pIC50 ([12]; LNCaP, 24 h, incubation 24 hours, FCS yes, 0.1 × 10^6/ml plated cells): 4.82 | pIC50 ([12]; LNCaP, 48 h, incubation 48 hours, FCS yes, 0.1 × 10^6/ml plated cells): 5.06 | pIC50 ([12]; LNCaP, 72 h, incubation 72 hours, FCS yes, 0.05 × 10^6/ml plated cells): 5.41 | pIC50 [13]: 4.82

pIC50 [10, 17]: < 4.30 | pIC50 [11, 17]: < 4.30
SMILES: CCCCCCCCCCNC(CO)(CO)CO [ADYZ195, 2-(decylamino)-2-(hydroxymethyl)propane-1,3-diol]

pIC50 [2]: 4.70 | pIC50 [3]: 5.52 | pIC50 [7]: 5.00 | pIC50 [14]: 4.82 | pIC50 [9]: 4.70 | pIC50 [10, 18]: 5.09 | pIC50 [10, 16]: 5.36 | pIC50 [11, 15]: 5.12 | pIC50 [12, 17]: 4.37 | pIC50 [12, 18]: 4.62 | pIC50 ([12]; incubation 72 hours, FCS yes, 0.5 × 10^6/ml plated cells): 5.52 | pIC50 [13]: 4.66
SMILES: CCCCCCCCCCCCCCCCCCNC(CO)(CO)CO [ADYZ197, 2-(octadecylamino)-2-(hydroxymethyl)propane-1,3-diol]
cell viability (MTT), combination of AD2730 and ADYZ197 [1]: significant synergistic effect on reduction of cell viability | tumor cell viability (MTT), combination with fluorouracil ([1]; 10 μM ADYZ197 combined with 20 μM fluorouracil): significant reduction of tumor cell viability
